According to PMC4275348 (Molecular microbiology, 2014):
Residue numbers refer to the chain shown, from its start. “Also recorded” adds a separate entry of the source.

Tests used:
WT LuxN = WT LuxN (Vibrio campbellii, UniProt A7MRY4); conditions: XK847
LuxN = LuxN (Vibrio campbellii, UniProt A7MRY4); type: cell-based, Vibrio harveyi; conditions: IC50 values measured at various concentrations of AI-1
Kin^off LuxN mutants = assay: Bioluminescence of V. harveyi XK006 harboring Kin^off biased luxN alleles; type: cell-based, Vibrio harveyi; conditions: 10 μM 3O-C12 HSL
[1] = test system: AinR Ser^203 replaced by Ile; assay: Bioluminescence of V. harveyi XK006 harboring ainR S203I; type: cell-based, Vibrio fischeri
WT AinR = assay: Bioluminescence of V. harveyi XK006 harboring WT V. fischeri ainR; type: cell-based, Vibrio fischeri
luxN^L166A/H210N = luxN^L166A/H210N (Vibrio campbellii, UniProt A7MRY4, H210N/L166A); conditions: AHLs added at 1 μM
LuxN^G147D/Y194H = target: T1, LuxN^G147D/Y194H (Vibrio campbellii, UniProt A7MRY4, G147D/Y194H); assay: Bioluminescence of V. harveyi XK006 carrying luxN G147D/Y194H; type: cell-based, Vibrio harveyi; conditions: 10 μM C8 HSL
T1 sequence (A7MRY4 1-849 G147D/Y194H): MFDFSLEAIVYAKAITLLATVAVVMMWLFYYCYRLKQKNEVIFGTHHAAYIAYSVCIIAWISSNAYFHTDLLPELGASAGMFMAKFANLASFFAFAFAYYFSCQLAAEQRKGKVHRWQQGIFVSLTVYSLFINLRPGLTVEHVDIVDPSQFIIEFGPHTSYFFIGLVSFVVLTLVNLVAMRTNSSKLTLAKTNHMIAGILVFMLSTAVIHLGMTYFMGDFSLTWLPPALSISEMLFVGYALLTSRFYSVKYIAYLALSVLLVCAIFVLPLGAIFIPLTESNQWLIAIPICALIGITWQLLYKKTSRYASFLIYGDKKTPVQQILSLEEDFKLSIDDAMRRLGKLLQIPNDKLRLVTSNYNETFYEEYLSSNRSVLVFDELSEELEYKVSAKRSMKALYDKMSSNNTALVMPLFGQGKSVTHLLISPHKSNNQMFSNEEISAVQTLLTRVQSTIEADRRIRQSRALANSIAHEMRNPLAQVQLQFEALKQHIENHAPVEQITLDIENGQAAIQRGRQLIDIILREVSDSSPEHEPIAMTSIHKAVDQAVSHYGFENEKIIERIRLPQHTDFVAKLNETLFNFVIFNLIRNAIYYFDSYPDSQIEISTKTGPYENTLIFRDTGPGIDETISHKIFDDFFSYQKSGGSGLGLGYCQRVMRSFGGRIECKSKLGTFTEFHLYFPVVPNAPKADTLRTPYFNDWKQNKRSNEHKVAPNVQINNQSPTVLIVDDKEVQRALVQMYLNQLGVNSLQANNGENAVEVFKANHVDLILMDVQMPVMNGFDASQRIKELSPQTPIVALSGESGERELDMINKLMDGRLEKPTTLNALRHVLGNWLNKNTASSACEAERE

AinR^Q204H = assay: Bioluminescence of V. harveyi XK006 harboring ainR Q204H; type: cell-based, Vibrio fischeri
LuxN^L166A = LuxN^L166A (Vibrio campbellii, UniProt A7MRY4, L166A)
LuxN^L166H/N176D = target: T2, LuxN^L166H/N176D (Vibrio campbellii, UniProt A7MRY4, L166H/N176D); assay: Bioluminescence of V. harveyi XK006 carrying luxN L166H/N176D; type: cell-based, Vibrio harveyi; conditions: 10 μM C8 HSL
T2 sequence (A7MRY4 1-849 L166H/N176D): T1 sequence (A7MRY4 1-849 G147D/Y194H) with D147G, L166H, N176D, H194Y

Structure (SMILES)	light production phenotype (WT LuxN)	mechanism of antagonism (LuxN)	inhibition of light production (Kin^off LuxN mutants)	detection (light production) [1]	light production (WT AinR; AHLs added at 1 μM)	sensitivity of the reporter (WT AinR; dose response (Table S3))	light production (luxN^L166A/H210N)	induction of light production (LuxN^G147D/Y194H) [fold]	detection (light production) (AinR^Q204H)	detection (light production) (LuxN^L166A)	higher light compared to DMSO or 20 nM AI-1 (LuxN^L166H/N176D) [fold]
CCCCCCCCCC(=O)CC(=O)N[C@H]1CCOC1=O [3O-C12 HSL]	completely dark phenotype	competitive	inhibited light production to basal levels; also recorded: reduced light production to basal levels								
CCCCCCCC(=O)N[C@H]1CCOC1=O [C8 HSL]		behaved similarly to 3O-C12 HSL		most potent agonist	light production was induced	most sensitive	produced maximal light	10	retained the capability to detect	only modest detection	3
